Columns and labels:
[1] = system: tumor necrosis factor-α (TNF-α); test: Sandwich ELISA quantification of TNF-α in supernatants of treated fibroblast-like synoviocytes; assay type: cell-based, human; settings: fibroblast-like synoviocytes from patients with degenerative arthritis, 24 hours treatment, supernatant
Experimental: (§1) The fibroblast-like synoviocytes (FLS) from five patients with degenerative arthritis were collected and cultured. First, the joint synovium of the patients were cut into small pieces, suspended in a DMEM (Dulbecco modified eagle's medium) culture medium, and incubated under an environment of 37° C. and 5% CO2 for 3 days. The culture medium contains 1.5 g/L sodium bicarbonate (S6297, Sigma-Aldrich, St Louis, Mo., USA), 1% penicillin-streptomycin-neomycin (P408, Sigma-Aldrich), and 10% fetal bovine serum (04-001-1A, Biological Industries, Grand Island, N.Y., USA).
(§2) Non-attached cells were removed by a phosphate buffered saline solution (PBS), the culture medium was refreshed, and the attached cells were cultured for 2 weeks. After the above steps were repeated 3 to 6 times, the remaining cells were fibroblast-like synoviocytes. The obtained cells were then used for the following test.
(§3) The fibroblast-like synoviocytes obtained form Experiment A were cultured in a serum-free culture medium for 24 hours. Then, the fibroblast-like synoviocytes were separately cultured in the following four culture medium for 24 hours: (1) a DMEM culture medium comprising only 10% fetal bovine serum (as a control group); (2) a DMEM culture medium comprising 10% fetal bovine serum and hyaluronic acid (having an average molecular weight of 600 KDa to 800 KDa); (3) a DMEM culture medium comprising 10% fetal bovine serum and vitamin C, vitamin D, or vitamin E; and (4) a DMEM culture medium comprising 10% fetal bovine serum, hyaluronic acid (having an average molecular weight of 600 KDa to 800 KDa), and vitamin C, vitamin D or vitamin E. The concentrations of hyaluronic acid and vitamin in the above four culture mediums were the same as the above Preparation Example.
(§4) Then, the cells of the aforesaid four groups were collected and centrifuged, and the supernatants were collected for the following analysis.
(§5) In this experiment, the concentrations of two cytokines related to degenerative arthritis in the collected supernatants from Experiment B were determined by using a sandwich binding protein assay kit (or sandwich ELISA kits, purchased from the eBioscience company) based on the standard curves according to the manufacturer's manual to analyze the expression level of these cytokines and determine the inflammation level of the cells. […] Each sample was analyzed twice, and an enzyme-linked immunosorbent assay (ELISA) reader (Sunrise Remote, TECAN) was used to carry out the measurement.

Interleukin-1β (IL-1β) = test: Sandwich ELISA quantification of IL-1β in supernatants of treated fibroblast-like synoviocytes; assay type: cell-based, human; settings: fibroblast-like synoviocytes from patients with degenerative arthritis, 24 hours treatment, supernatant
Experimental: as §1, §2, §3, §4, §5

[2] = Table 1 (vitamin C experiment), control 95.57
[3] = Table 1 (vitamin C experiment), control 91.98
[4] = Table 3 (vitamin E experiment), control 98.09
[5] = Table 3 (vitamin E experiment), control 97.37
[6] = Table 2 (vitamin D experiment), control 106.78
[7] = Table 2 (vitamin D experiment), control 97.47

What does the source list for `O=C1O[C@H]([C@@H](O)CO)C(O)=C1O` [vitamin C]?
TNF-α average concentration [1, 2]: 75.56 pg/mL; IL-1β average concentration (Interleukin-1β (IL-1β); [3]): 77.00 pg/mL

With vitamin E as the molecule, how does the TNF-α average concentration [1, 4] read?
The TNF-α average concentration was 77.03 pg/mL.

And the IL-1β average concentration (Interleukin-1β (IL-1β); [5])?
Its IL-1β average concentration is 75.57 pg/mL.

Which results are given for hyaluronic acid?
TNF-α average concentration [1, 2]: 75.64 pg/mL; TNF-α average concentration [1, 6]: 82.52 pg/mL; TNF-α average concentration [1, 4]: 79.28 pg/mL; IL-1β average concentration (Interleukin-1β (IL-1β); [3]): 78.79 pg/mL; IL-1β average concentration (Interleukin-1β (IL-1β); [7]): 76.03 pg/mL; IL-1β average concentration (Interleukin-1β (IL-1β); [5]): 78.33 pg/mL

vitamin D was tested. Which TNF-α average concentration [1, 6] did it give?
Its TNF-α average concentration is 79.52 pg/mL.

And the IL-1β average concentration (Interleukin-1β (IL-1β); [7])?
The IL-1β average concentration was 74.78 pg/mL.

Reference: patent US20150094279A1, “PHARMACEUTICAL COMPOSITION AND METHOD FOR INHIBITING INFLAMMATION” (CHINA MEDICAL UNIVERSITY, priority 2011, published 2015)
